# According to US7247634B2, “Rifamycin derivatives effective against drug-resistant microbes” (Cumbre Pharmaceuticals Inc., priority 2004, dated 2007):
# What was measured:
# Assay type in all cases: cell-based
# [1] = tested on: Staphylococcus aureus EN1252a gyrA^S84L grlA^S80F; assay: microbe, parasite or virus in culture; settings: read-out: Antimicrobial activity (MIC)
# Description: (§1) Representative compounds were assayed for antimicrobial activity as follows: Minimum Inhibitory Concentrations (“MICs”) were determined by the microbroth dilution method as per NCCLS guidelines (National Committee for Clinical Laboratory Standards. 2000. Methods for dilution antimicrobial susceptibility tests for bacteria that grow aerobically, 5th ed. M7-A5. National Committee for Clinical Laboratory Standards, Wayne, Pa.), except that all growth incubations were conducted at 37° C. Bacterial cultures were tested in the following bacteriological media: S. aureus, S. epidermidis, and E. coli in Cation-Adjusted Mueller-Hinton Broth, S. pneumoniae in THY Broth supplemented with 1 mg/mL catalase under 5% CO2 atmosphere, S. pyogenes in THY Broth, E. faecalis in BHI Broth, H. influenzae in BHI Broth supplemented with 0.75 μL of 1 mg/mL NAD and 150 μL of 1 mg/ml hematin per 5 mL, and M. smegmatis in Middlebrook Broth plus ADC Enrichment.
# (§2) S. aureus ATCC 29213 RpoB^H418Y is a rifampin-resistant strain with a mutation in RNA polymerase, the biological target of rifamycin antibiotics. […] S. aureus EN1252a gyrA^S84L grlA^S80F is a quinolone-resistant strain due to double mutations to DNA gyrase and topoisomerase IV, the two biological targets for quinolone antibiotics.
# [2] = tested on: Staphylococcus aureus ATCC29213 rpoB^H418Y; assay: microbe, parasite or virus in culture; settings: ATCC29213, read-out: Antimicrobial activity (MIC)
# Description: as §1, §2
# [3] = tested on: Staphylococcus aureus ATCC29213 rpoB^D417Y; assay: microbe, parasite or virus in culture; settings: ATCC29213, read-out: Antimicrobial activity (MIC)
# Description: as §1, §2
# [4] = tested on: Staphylococcus epidermidis ATCC12228; assay: MIC, microbroth dilution (NCCLS); settings: rifS strain, Cation-Adjusted Mueller-Hinton Broth, 37° C., read-out: Antimicrobial activity (MIC)
# [5] = tested on: Enterococcus faecalis ATCC29212; assay: MIC, microbroth dilution (NCCLS); settings: rifS strain, BHI Broth, 37° C., read-out: Antimicrobial activity (MIC)
# [6] = tested on: Haemophilus influenzae ATCC10211; assay: MIC, microbroth dilution (NCCLS); settings: rifS strain, BHI Broth with NAD and hematin, 37° C., read-out: Antimicrobial activity (MIC)
# [7] = tested on: Mycobacterium smegmatis ATCC700084; assay: MIC, microbroth dilution (NCCLS); settings: Mycolicibacterium smegmatis, rifS strain, Middlebrook Broth plus ADC Enrichment, 37° C., read-out: Antimicrobial activity (MIC)
# [8] = tested on: Streptococcus pneumoniae ATCC6303; assay: MIC, microbroth dilution (NCCLS); settings: rifS strain, THY Broth with 1 mg/mL catalase, 5% CO2, 37° C., read-out: Antimicrobial activity (MIC)
# [9] = tested on: Escherichia coli ATCC25922; assay: MIC, microbroth dilution (NCCLS); settings: rifS strain, Cation-Adjusted Mueller-Hinton Broth, 37° C., read-out: Antimicrobial activity (MIC)
# [10] = tested on: Streptococcus pyogenes ATCC19615; assay: MIC, microbroth dilution (NCCLS); settings: rifS strain, THY Broth, 37° C., read-out: Antimicrobial activity (MIC)
# [11] = tested on: Staphylococcus aureus ATCC29213; assay: MIC, microbroth dilution (NCCLS); settings: rifS strain, Cation-Adjusted Mueller-Hinton Broth, 37° C., read-out: Antimicrobial activity (MIC)
SMILES,MIC [1],MIC [2],MIC [3],MIC [4],MIC [5],MIC [6],MIC [7],MIC [8],MIC [9],MIC [10],MIC [11]
"CO[C@H]1/C=C/O[C@@]2(C)Oc3c(C)c(O)c4c(O)c(c(CN5CCN(c6cc7c(cc6F)c(=O)c(C(=O)O)cn7C6CC6)CC5)c(O)c4c3C2=O)NC(=O)/C(C)=C\C=C\[C@H](C)[C@H](O)[C@@H](C)[C@@H](O)[C@@H](C)[C@H](OC(C)=O)[C@@H]1C [Example 12, 3-[4-[3-Carboxy-1-cyclopropyl-6-fluoro-4-oxo-(1,4-dihydroquinolin-7-yl)]-piperazin-1-ylmethyl]rifamycin SV]",0.004 to 0.5 µg/mL,0.06 to 16 µg/mL,0.06 to 32 µg/mL,0.008 to 0.063 µg/mL,2 to 32 µg/mL,0.125 to 2 µg/mL,0.5 to 64 µg/mL,0.008 to 0.125 µg/mL,0.125 to 8 µg/mL,0.008 to 0.063 µg/mL,0.004 to 0.5 µg/mL
"CO[C@H]1/C=C/O[C@@]2(C)Oc3c(C)c(O)c4c(O)c(c(CN5CCN(c6nc7c(cc6F)c(=O)c(C(=O)O)cn7-c6ccc(F)cc6F)CC5)c(O)c4c3C2=O)NC(=O)/C(C)=C\C=C\[C@H](C)[C@H](O)[C@@H](C)[C@@H](O)[C@@H](C)[C@H](OC(C)=O)[C@@H]1C [Example 14, 3-[4-[3-carboxy-1-(2,4-Difluoro-phenyl)-6-fluoro-4-oxo-1,4-dihydro-[1,8]naphthyridin-7-yl]piperazin-1-ylmethyl]rifamycin SV]",0.004 to 0.5 µg/mL,0.06 to 16 µg/mL,0.06 to 32 µg/mL,0.008 to 0.063 µg/mL,2 to 32 µg/mL,0.125 to 2 µg/mL,0.5 to 64 µg/mL,0.008 to 0.125 µg/mL,0.125 to 8 µg/mL,0.008 to 0.063 µg/mL,0.004 to 0.5 µg/mL
"CO[C@H]1/C=C/O[C@@]2(C)Oc3c(C)c(O)c4c(O)c(c(CN[C@@H]5CCN(c6cc7c(cc6F)c(=O)c(C(=O)O)cn7C6CC6)C5)c(O)c4c3C2=O)NC(=O)/C(C)=C\C=C\[C@H](C)[C@H](O)[C@@H](C)[C@@H](O)[C@@H](C)[C@H](OC(C)=O)[C@@H]1C [Example 15, (R)-3-[1-(3-carboxy-1-cyclopropyl-6-fluoro-4-oxo-1,4-dihydroquinolin-7-yl)-pyrrolidinyl-3-aminomethyl]rifamycin SV]",0.004 to 0.5 µg/mL,0.06 to 16 µg/mL,0.06 to 32 µg/mL,0.008 to 0.063 µg/mL,2 to 32 µg/mL,0.125 to 2 µg/mL,0.5 to 64 µg/mL,0.008 to 0.125 µg/mL,0.125 to 8 µg/mL,0.008 to 0.063 µg/mL,0.004 to 0.5 µg/mL
"CO[C@H]1/C=C/O[C@@]2(C)Oc3c(C)c(O)c4c(O)c(c(CN[C@H]5CCN(c6cc7c(cc6F)c(=O)c(C(=O)O)cn7C6CC6)C5)c(O)c4c3C2=O)NC(=O)/C(C)=C\C=C\[C@H](C)[C@H](O)[C@@H](C)[C@@H](O)[C@@H](C)[C@H](OC(C)=O)[C@@H]1C [Example 16, (S)-3-[1-(3-carboxy-1-cyclopropyl-6-fluoro-4-oxo-1,4-dihydroquinolin-7-yl)-pyrrolidinyl-3-aminomethyl]rifamycin SV]",0.004 to 0.5 µg/mL,0.06 to 16 µg/mL,0.06 to 32 µg/mL,0.008 to 0.063 µg/mL,2 to 32 µg/mL,0.125 to 2 µg/mL,0.5 to 64 µg/mL,0.008 to 0.125 µg/mL,0.125 to 8 µg/mL,0.008 to 0.063 µg/mL,0.004 to 0.5 µg/mL
"CO[C@H]1/C=C/O[C@@]2(C)Oc3c(C)c(O)c4c(c3C2=O)C(=O)C(N2CCN(c3ccc(N5C[C@H](CNC(C)=O)OC5=O)cc3F)CC2)=C(NC(=O)/C(C)=C\C=C\[C@H](C)[C@H](O)[C@@H](C)[C@@H](O)[C@@H](C)[C@H](OC(C)=O)[C@@H]1C)C4=O [Example 23, (S)-3-[4-[4-(5-Acetylaminomethyl-2-oxo-oxazolidin-3-yl)-2-fluoro-phenyl]-piperazin-1-yl]rifamycin S]",0.004 to 0.5 µg/mL,0.06 to 16 µg/mL,0.06 to 32 µg/mL,0.008 to 0.063 µg/mL,2 to 32 µg/mL,0.125 to 2 µg/mL,0.5 to 64 µg/mL,0.008 to 0.125 µg/mL,0.125 to 8 µg/mL,0.008 to 0.063 µg/mL,0.004 to 0.5 µg/mL
